The data set is described as follows: Dissolving capacity evaluation of peptide chains at 2 mg/mL in solvents. Type of data set: physicochemical. To be noted: for Dissolving capacity, ACN:H2O (1:3): 2 mg/mL in ACN:H2O (1:3) solution in HPLC; for Dissolving capacity, DMF: 2 mg/mL in DMF solution; for Dissolving capacity, DMSO: 2 mg/mL in DMSO solution. The method, then:
This test evaluated the dissolving capacity of each group of peptide chain at 2 mg/mL in a DMF solution, a DMSO solution, an ACN:H2O (1:3) solution in HPLC, and an LiOH saturated solution, respectively. The poorly soluble polypeptide chain-linker arm-hydrophilic polypeptide chain in embodiments 1 and 2 were taken as Groups 1 and 2, respectively, and a separate poorly soluble polypeptide chain […] (SEQ ID NO: 1) was taken as a control group, as shown in Table 3: […]

Where [1] appears, read: listed as ILVLLIII (SEQ ID NO: 1) 4-HMBA-DDDDDEEKEEEE (SEQ ID NO: 2).

Turning to “ILVLLIII (SEQ ID NO: 1) (Poorly soluble polypeptide) [Group 3, the target peptide, reference compound]”, the “Dissolving capacity, ACN:H2O (1:3)” value is recorded as “very cloudy with solids precipitating”; the “Dissolving capacity, DMF” value was “very cloudy with solids precipitating”; the “Dissolving capacity, DMSO” value was “very cloudy with solids precipitating”.

“ILVLLIII (SEQ ID NO: 1)-HMBA-DDDDDEEKEEEE (SEQ ID NO: 2) [Group 1]”: under setting [1], the “Dissolving capacity, ACN:H2O (1:3)” value was “clear with no solids precipitating”; the “Dissolving capacity, DMF” value is listed as “clear with no solids precipitating”; the “Dissolving capacity, DMSO” value is on record as “clear with no solids precipitating”.

Turning to “ILVLLIII (SEQ ID NO: 1)-HPA-RRRRREDKKKKK (SEQ ID NO: 3) [Group 2]”, the “Dissolving capacity, ACN:H2O (1:3)” value is reported as “completely dissolved”; the “Dissolving capacity, DMF” value is on record as “solids still precipitated”; the “Dissolving capacity, DMSO” value is recorded as “solids still precipitated”. Also, the “Dissolving capacity, LiOH saturated solution” value (2 mg/mL in LiOH saturated solution, listed as second group) is reported as “obviously not better than that of the first group”.
